From publication PMC11157767 (Molecular Cancer, 2024)

Experiments:
[1] = mNSCLC patients; cited from earlier work
[2] = In vitro protein binding assay, mouse plasma
[3] = system: TRIM24-MET L97 human glioma cell lines; experiment: γH2AX immunofluorescence after 4 Gy irradiation, TRIM24-MET human glioma cells; assay type: cell-based; details: 1, 2, 3 and 4 hours following 4 Gy irradiation
Experimental: Error bars display standard error of mean, statistical significance was determined using t-test analysis. (****;p<0.0001, ***;p<0.001, **;p<0.01, *;p<0.05). […] Each dot represents an individual replicate. Error bars display standard error of the mean. Statistical significance was determined using a One-Way ANOVA followed by Tukey’s multiple comparisons test (*p<0.05, **p<0.01, ***p<0.001, ****p<0.0001).

[4] = system: cells isolated from murine tumors induced by overexpressing TFG-MET alone; details: without Trp53 knockout
[5] = in vitro; details: mouse, plasma

Row | SMILES | discontinuation due to fatigue [1] | discontinuation due to peripheral edema [1] | discontinuation due to pneumonitis [1] | patients permanently discontinued due to an adverse reaction [1] | fraction unbound [2] | percentage of cells with ≥20 γH2AX-foci vs DMSO [3] | inhibition in dose response assay [4] | fraction unbound [5]
1 | CNC(=O)c1ccc(-c2cnc3ncc(Cc4ccc5ncccc5c4)n3n2)cc1F [Capmatinib] | 1.5% | 1.8% | 1.8% | 16% | 0.0502 | significantly higher | potently inhibited | –
2 | C[C@@H](Oc1cc(-c2cnn(C3CCNCC3)c2)cnc1N)c1c(Cl)ccc(F)c1Cl [Crizotinib] | – | – | – | – | – | – | – | 0.0223
